Assay results: patent US10301287B2, “Solid forms of cenicriviroc mesylate and processes of making solid forms of cenicriviroc mesylate” (Tobira Therapeutics, Inc., priority 2016, dated 2019)

What was measured:
[1] = Particle size according to USP <429> (laser light diffraction); format: physicochemical
Method: In some embodiments, the particle size and the particle size distribution (e.g., D90, D50, and D10) of a compound of the invention is determined by the laser light diffraction particle size distribution analysis. The particle size distribution is determined in accordance with the Fraunhofer light diffraction method. In this method, a coherent laser beam passes through the sample and the resulting diffraction pattern is focused on a multi-element detector. Since the diffraction pattern depends, among other parameters, on particle size, the particle size distribution can be calculated based on the measured diffraction pattern of the sample. In one embodiment, the particle size and the particle size distribution is measured according to U.S. Pharmacopeia (USP) <429>.
Particle Size: The particle size of the Micronized CVC mesylate Form A and the non-micronized CVC mesylate Form A were determined according to USP <429> as shown in Table 5.

[2] = Tapped bulk density, compressibility (Carr's) index and Hausner ratio; format: physicochemical; set-up: Compressibility (Carr's) Index: scale not given here; conditions: for Interpretation (flow): from average compressibility index / Hausner ratio, Tables 7 and 8
Method: Tapped Bulk Density: Tapped bulk density analysis was performed by pouring powder that had been sieved through a 1 mm Retsch stainless steel test sieve into a clean, dry pre-weighed 50 ml measuring cylinder. Powder was added to a total volume of 45-50 ml without compacting the sample. The mass and the initial volume (V0) were recorded. The sample was tapped using a Copley JV2000 tapped density tester using the following number of taps: 10, 490, 750 and sets of 1250 taps up to a total of 10,000 taps (Table 6). The volume was recorded after each set of taps and the sample was tapped until it reached constant volume (Vf). For these samples the 10,000 tap volume was used as Vf. Each sample was analysed in duplicate and the tapped density, compressibility index (Carr's index) and Hausner ratios were calculated using the formulae given below. The results from the duplicate analysis were averaged and the average result was used to assess the flow properties of the sample, using the parameters given in Table 7 (see “The Science of Dosage Form Design”, ME Aulton, 1988) and Table 8 (see USP method <1174>; see also, Carr, R. L. Evaluating Flow Properties of Solids. Chem Eng. 1965, 72, 163-168). Tapped Bulk Density=M/Vf. [formula] [formula]

[3] = Flow properties, Revolution Powder Analyser; format: physicochemical; conditions: for Avalanche Angle / Avalanche Energy / Avalanche Time / Break Energy / Rest Angle: drum rotation speed 0.3 rpm; for Interpretation (flow): from rest angle, Table 10
Method: Flow Properties: The flow properties of the samples were analysed using a Revolution Powder Analyser. Approximately 100 ml of the sample is placed in a sample drum which has two borosilicate glass sides. A motor turns two high precision silicone rollers, which in turn rotate the drum. A digital camera with the assistance of cold cathode backlight illumination takes images of the powder during the rotation process. Using a drum rotation speed of 0.3 rpm the time to avalanche, avalanche angle, avalanche energy, break energy and rest angle are measured. The software calculates these properties by analysing the images produced as the drum is rotated. The results of these properties can be used to assess the flow of the bulk powder. The interpretation of the rest angle (angle of repose) are given in Table 10 (see USP method <1174>; see also, Carr, R. L. Evaluating Flow Properties of Solids. Chem Eng. 1965, 72, 163-168).

[4] = BET surface area by multipoint nitrogen adsorption; format: physicochemical
Method: Samples were analysed for BET (Brunauer-Emmett-Teller) surface area by a multipoint Nitrogen adsorption method (volumetric technique) using a Micromeritics TriStar 3020 instrument. The sample degassing was undertaken using a Micromeritics FlowPrep 060 applying flowing argon of 99.995% purity at a flow rate of approximately 20 cc/min for two hours at 20° C. Samples were degassed in their respective analysis tubes and transferred directly to the TriStar II immediately after the degassing period.

[5] = Intrinsic dissolution of compressed disc, Sirius T3; format: physicochemical; conditions: Britton-Robinson buffer, average pH 3.12 (Form A), room temperature, disc 7.07 mm^2
Method: In one embodiment, the extrapolated intrinsic dissolution rate is measured using dissolution disc having 7.07 mm^2 which was compressed under high pressure, ca. 100 kg, using a constructed die. In one embodiment, a Sirius T3 was used as the dissolution apparatus containing 20 mL of test media with stirring speed of the paddle set to −30%. In some embodiments, the dissolution was measured at room temperature. In one embodiment, dissolution was measured over 1 pH sector by ultraviolet (UV) spectrometry. In one embodiment, the UV spectra of the dissolution solution was collected over time, for example every 30 seconds, and converted to concentration using the molar extinction coefficient (MEC) by UV-metric titration. In one embodiment, the intrinsic dissolution rate was calculated by dividing the extrapolated dissolution rate by the surface area of the dissolution disc. In one embodiment, the dissolution media was Britton-Robinson buffer solution. In one embodiment, the dissolution media was pH 3.1 Britton-Robinson buffer solution. In one embodiment, the dissolution media was pH 3.2 Britton-Robinson buffer solution. In another embodiment, the dissolution media was pH 4.7 Britton-Robinson buffer solution.
Intrinsic Dissolution: Appropriate weight of the pure test compound material were used to fill the cavity of the dissolution disc and compressed under high pressure, ca. 100 kg, using a constructed die. No additives were added, avoiding any external interference in the intrinsic dissolution profile. The resulting non-disintegrating disc was transferred to the dissolution apparatus, Sirius T3, containing 20 ml of the test media at room temperature. The stirring speed of the paddle was set to −30%. Dissolution was then measured over 1 pH sector. The solution spectra was collected every 30 seconds over 120 collection points and converted to concentration using the molar extinction coefficient (MEC) by UV-metric titration. Intrinsic dissolution rate was calculated by dividing the extrapolated dissolution rate by the surface area of the disk (7.07 mm^2). All analysis was performed in duplicate, with XRPD both prior to and post dissolution analysis, where possible.
Dissolution media, Britton-Robinson buffer solutions, were prepared by adding a specified volume of sodium hydroxide (0.2 M) to 200 ml of a solution of mixed acid, of 0.04 M with respect to phosphoric acid (2.72 ml/l), acetic acid (2.30 ml/l) and boric acid (2.476 g/l). The amount of sodium hydroxide used to prepare each buffer is outlined below:
pH 3.2 Britton-Robinson buffer: 38 ml of sodium hydroxide.

[6] = cited from earlier work
[7] = Rep. 1, M/Vf, Vf = volume after 10,000 taps
[8] = Rep. 2, M/Vf, Vf = volume after 10,000 taps
[9] = listed as Form A Non-micronized

Structure (SMILES) | Compressibility (Carr's) Index ([2]; Mean of duplicate) | Hausner Ratio ([2]; Mean of duplicate) | Tapped Bulk Density ([2]; Mean of duplicate) [g/mL] | Compressibility (Carr's) Index ([2]; Rep. 1) | Hausner Ratio ([2]; Rep. 1) | Tapped Bulk Density [2, 7] [g/mL] | Compressibility (Carr's) Index ([2]; Rep. 2) | Hausner Ratio ([2]; Rep. 2) | Tapped Bulk Density [2, 8] [g/mL] | Interpretation (flow) [2] | Avalanche Angle [3] [deg] | Avalanche Energy [3] [kJ/kg] | Avalanche Time [3] [s] | Break Energy [3] [kJ/kg] | Rest Angle [3] [deg] | Interpretation (flow) [3] | BET constant, C [4] | Surface area [4] [m^2/g] | Extrapolated Dissolution Rate ([5]; Disc 1, 3.14 (Form C)) [µg/min] | Extrapolated Dissolution Rate ([5]; Disc 2, 3.15 (Form C)) [µg/min] | further results
CCCCOCCOc1ccc(-c2ccc3c(c2)/C=C(/C(=O)Nc2ccc([S@@+]([O-])Cc4cncn4CCC)cc2)CCCN3CC(C)C)cc1 [Form A Micronised] | 28.6 | 1.4 | 0.2 | 27.55 | 1.42 | 0.16 | 29.59 | 1.40 | 0.16 | Poor (23-35) | 68.05 | 32.98 | 7.4 | 86.41 | 44.85 | Passable (Passable - may hang up 41-45) | 37.98 | 12.3614 ± 0.0440 | 7.20 | 9.43 | Particle Size D10 ([1]; listed as Form A Micronized): 0.582 μm; Particle Size D50 ([1]; listed as Form A Micronized): 3.226 μm; Particle Size D90 ([1]; listed as Form A Micronized): 7.576 μm
CCCCOCCOc1ccc(-c2ccc3c(c2)/C=C(/C(=O)Nc2ccc([S+]([O-])Cc4cncn4CCC)cc2)CCCN3CC(C)C)cc1 (stereo not drawn) [Form C] | 6.0 | 1.1 | 0.5 | 7.07 | 1.08 | 0.49 | 5.00 | 1.05 | 0.48 | Excellent (5-15) | 51.55 | 20.28 | 4.4 | 71.90 | 41.30 | Passable (Passable - may hang up 41-45) | 39.87 | 2.3071 ± 0.0058 | 10.80 | 11.38 | Density and flow compared with the Form A samples ([3]; Revolution Analyzer flowability measurements): more dense and flows better than the Form A samples
CCCCOCCOc1ccc(-c2ccc3c(c2)/C=C(/C(=O)Nc2ccc([S@@+]([O-])Cc4cncn4CCC)cc2)CCCN3CC(C)C)cc1 [Cenicriviroc, (S,E)-8-(4-(2-Butoxyethoxy)phenyl)-1-(2-methylpropyl)-N-(4-(((1-propyl-1H-imidazol-5-yl)methyl)sulfinyl)phenyl)-1,2,3,4-tetrahydrobenzo[b]azocine-5-carboxamide] | – | – | – | – | – | – | – | – | – | – | – | – | – | – | – | – | – | – | – | – | Water solubility [6]: poorly water-soluble
CCCCOCCOc1ccc(-c2ccc3c(c2)/C=C(/C(=O)Nc2ccc([S+]([O-])Cc4cncn4CCC)cc2)CCCN3CC(C)C)cc1 (stereo not drawn) [Form A Non-micronised] | 35.4 | 1.5 | 0.2 | 34.34 | 1.52 | 0.22 | 36.36 | 1.57 | 0.21 | Very Poor | 72.60 | 41.58 | 6.5 | 138.38 | 50.75 | Poor (Poor - must agitate, vibrate 46-55) | 42.99 | 3.0295 ± 0.0122 | – | – | Particle Size D10 [1, 9]: 4.725 μm; Particle Size D50 [1, 9]: 13.803 μm; Particle Size D90 [1, 9]: 65.910 μm
